Results published in patent US8003630B2, “Combinatorial therapies for the treatment of neoplasias using the opioid growth factor receptor” (The Penn State Research Foundation, priority 2004, dated 2011).

Key:
[1] = tested on: SCC-1 cells; experiment: Cell proliferation assays of SCC-1 cells (MTS or cell counting), Example 8; format: cell-based, human; details: for decrease from control levels in absorbency readings: opioids 10^−6 M daily; for reduction of cell number from control levels: SCC-1, MTS, carboplatin 10^−7 M
Protocol: The UM-SCC-1 cell line (SCC-1) was derived from a well-differentiated recurrent squamous cell carcinoma in the floor of the mouth of a person (25). This cell line was obtained from The University of Michigan, Cancer Research Laboratory (Thomas E. Carey, Ph.D., Director). CAL-27 human squamous cell carcinoma cell line, derived from a poorly differentiated carcinoma of the tongue in a person ([…]), was obtained from the American Type Culture Collection (Manassas, Va.). Both cell lines were grown in Dulbecco's MEM (modified) media supplemented with 10% fetal calf serum, 1.2% sodium bicarbonate, and antibiotics (5,000 Units/ml penicillin, 5 mg/ml streptomycin, 10 mg/ml neomycin). The cell cultures were maintained in a humidified atmosphere of 7% CO2/93% air at 37° C.
Cells were seeded at equivalent amounts into either 6-well or 96-well plates (Falcon) and counted 24 hr later to determine plating efficiency.
The dosage of carboplatin selected was based on previous reports (27, 28), as well as preliminary studies in our laboratory.
Cell number was recorded either by using the MTS proliferation bioassay (Cell Titer 96 One Solution, Promega, Madison, Wis.) and measuring absorbency after 4 hr on a Biorad (Model 3550) plate reader at 490 nm with a 750 nm background absorbance screening, or by directly counting cells. The MTS assay utilized 10 wells/treatment. For manual counts, cells were harvested by trypsinization with 0.25% trypsin/0.53 mM EDTA, centrif uiged, and counted with a hemacytometer. Cell viability was determined by trypan blue staining. At least two aliquots per well, and 4-10 wells/treatment, were counted at each time for manual counting.
For some experiments, the rate of growth over a 96-hr period of time was calculated using linear regression analyses. The slopes of the lines (number of cells/hr) were compared by analysis of variance. All calculations were performed with GraphPad Prism software.

[2] = tested on: MIA PaCa-2 cells; experiment: Growth assays of MIA PaCa-2 cells (MTS assay or cell counting), Example 7; format: cell-based, human; details: for inhibition of cell number relative to controls: MIA PaCa-2, opioids 10^−6 M daily, 96 hr
Protocol: MIA PaCa-2 and PANC-1 human pancreatic adenocarcinoma cell lines were purchased from the American Type Culture Collection (Manasass, Va.). MIA PaCa-2 cells were derived from an undifferentiated epithelial carcinoma occurring in the body and tail of the pancreas in a person. The PANC-1 cells were derived from an undifferentiated carcinoma from the head of the pancreas in a person. MIA PaCa-2 and PANC-1 cells were grown in Dulbecco's MEM (modified) media; media was supplemented with 10% fetal calf serum, 1.2% sodium bicarbonate, and antibiotics (5,000 Units/ml penicillin, 5 mg/ml streptomycin, 10 mg/ml neomycin), and the cells were maintained in a humidified atmosphere of 7% CO2/93% air at 37° C.
MIA PaCa-2 cells were seeded at equivalent amounts into either 75 cm^2 flasks, 6-well plates, or 96-well plates (Falcon) and counted 24 hr later to determine plating efficiency. Growth assays for PANC-1 cells were conducted in 6-well plates (Falcon). Compounds or sterile water were added beginning 24 hr after seeding (=0 hr), and both media and compounds were replaced daily. All drugs were prepared in sterile water and dilutions represent final concentrations of the compounds.
Cell number was recorded either by using a mitogenic bioassay, the MTS assay (Cell Titer 96 One Solution, Promega, Madison, Wis.), and measuring absorbency after 4 hr on a Biorad (Model 3550) plate reader at 490 nm, or by counting cells. For manual counts, cells were harvested with a solution of 0.25% trypsin/0.53 mM EDTA, centrif uiged, and counted with a hemacytometer. Cell viability was determined by trypan blue staining. At least two aliquots per flask or 4-10 wells/treatment were counted at each time.

[3] = tested on: SCC-1 cells; experiment: Growth curves of SCC-1 cells, cell proliferation (MTT) assay, absorbency
Description: Cells were counted using a standard MTT assay. In general, each data point represents the average absorbency taken from 10 wells/treatment; error bars represent the S.E.M.

| Compound | decrease from control levels in absorbency readings ([1]; SCC-1) | inhibition of cell number relative to controls [2] | also measured |
| --- | --- | --- | --- |
| CC(C)C[C@@H](NC(=O)[C@H](Cc1ccccc1)NC(=O)CNC(=O)[C@@H](C)NC(=O)[C@@H](N)Cc1ccc(O)cc1)C(=O)O [DADLE, [D-Ala-D-Leu-enkephalin]] | none of the drugs utilized had any inhibitory or stimulatory effect on growth | none of the other drugs utilized had any inhibitory or stimulatory effect on growth | – |
| C[C@@H](NC(=O)[C@@H](N)Cc1ccc(O)cc1)C(=O)NCC(=O)N(C)[C@@H](Cc1ccccc1)C(=O)NCCO [DAMGO, [D-Ala^2, MePhe^4, Glyol^5]-enkephalin] | none of the drugs utilized had any inhibitory or stimulatory effect on growth | none of the other drugs utilized had any inhibitory or stimulatory effect on growth | – |
| N.N.O=C([O-])C1(C(=O)[O-])CCC1.[Pt+2] [carboplatin] | – | – | decrease in cell number relative to controls ([3]; 48 h, carboplatin 10^−6 M and/or OGF 10^−6 M): 5.3%; decrease in cell number relative to controls ([3]; 72 h, carboplatin 10^−6 M and/or OGF 10^−6 M): 21.8%; decrease in cell number relative to controls ([3]; 72 h, carboplatin 10^−7 M alone or with OGF 10^−6 M): 18.7%; decrease in cell number relative to controls ([3]; 96 h, carboplatin 10^−6 M and/or OGF 10^−6 M): 24.9%; decrease in cell number relative to controls ([3]; 96 h, carboplatin 10^−7 M alone or with OGF 10^−6 M): 21%; reduction of cell number from control levels ([1]; 72 hr): 19%; reduction of cell number from control levels ([1]; 96 hr): 21% |
| CN1CC[C@]23c4c5ccc(O)c4O[C@H]2[C@@H](O)C=C[C@H]3[C@H]1C5 [morphine] | none of the drugs utilized had any inhibitory or stimulatory effect on growth | none of the other drugs utilized had any inhibitory or stimulatory effect on growth | – |
| C=CCN1CC[C@]23c4c5ccc(O)c4O[C@H]2C(=O)CC[C@@]3(O)[C@H]1C5 [naloxone] | – | – | effect of naloxone on growth and growth inhibition ([1]; SCC-1, naloxone 10^−6 M): had no effect on growth; effect of naloxone on growth and growth inhibition ([2]; MIA PaCa-2, 96 hr, naloxone 10^−6 M): had no effect on the growth of MIA PaCa-2 cells |
| [D-Pen^2,5]-enkephalin [DPDPE] | none of the drugs utilized had any inhibitory or stimulatory effect on growth | none of the other drugs utilized had any inhibitory or stimulatory effect on growth | – |
| dynorphin 1-13 (YGGFLRRIRPKLK; Dynorphin A(1-13); UniProt P01213 207-219, looked up, fragment) | none of the drugs utilized had any inhibitory or stimulatory effect on growth | – | – |
| dynorphin A1-8 (YGGFLRRI; Dynorphin A(1-8); UniProt P01213 207-214, looked up, fragment) | – | none of the other drugs utilized had any inhibitory or stimulatory effect on growth | – |
| endomorphin-1 | none of the drugs utilized had any inhibitory or stimulatory effect on growth | none of the other drugs utilized had any inhibitory or stimulatory effect on growth | – |
| endomorphin-2 | none of the drugs utilized had any inhibitory or stimulatory effect on growth | none of the other drugs utilized had any inhibitory or stimulatory effect on growth | – |
| β-endorphin (YGGFMTSEKSQTPLVTLFKNAIIKNAYKKGE; Beta-endorphin; UniProt P01189 237-267, looked up) | none of the drugs utilized had any inhibitory or stimulatory effect on growth | none of the other drugs utilized had any inhibitory or stimulatory effect on growth | – |
